The subject of experiment [1] is T98G cells. The experiment can be described thus: Potentiation of MeLex cytotoxicity, short term (72 h) MTS assay. The experiment is classed as cell-based, human. Conditions: 72 h MTS assay. The procedure: (§1) Cytotoxic Potentiation of Various DNA Damaging Agents. T98G cells maintained in growth medium were resuspended in fresh growth medium and seeded into 96-well plates at 2000 cells/well (short term cytotoxicity) or 100 cells/well (long term cytotoxicity) as described in the previous section. After 24 h, the cells were treated with serial dilutions of various DNA damaging drugs in absence or presence of APE-1 inhibitors. At the end of the treatment period, cell survival was assayed using CellTiter 96 AQueous or CyQUANT kits for the short- and long-term studies respectively.
(§2) Toxicity. It was assumed that inhibition of APE-1 activity would be lead to toxicity since genetic deletion of the protein is lethal to cells. […] The toxicities were also determined in combination with the DNA minor groove methylating agent, MeLex. MeLex efficiently and selectively generates N3-methyladenine, which is converted into an abasic site by a BER glycosylase and/or hydrolytic depurination. The T98G cell line is relatively resistant to DNA damaging anticancer agents due to expression of multiple drug resistance proteins and O^6-alkylguanine-DNA alkyltransferase. […] A goal of the development of APE-1 inhibitors is to determine if they can be used to enhance the activity of DNA alkylating agents.
(Tetrazolium dyes change colour on reduction, which living cells bring about.)

For experiment [2], the target named is T1, APE-1 (Homo sapiens (Human), UniProt P27695). The experiment can be described thus: Gel-based excision assay for APE-1 inhibitors. It counts as biochemical. To be noted: APE-1 cleaved fragment vs. full length DNA substrate. The procedure: (§3) Screening for APE-1 Inhibitors. […] In this assay, the DNA hairpin substrate has a 6-FAM fluorophore on the 5′-terminus, a DABACYL fluorescence quencher on the 3′-terminus and a THF abasic site located 6 base pairs from the 5′-terminus in the stem region (FIG. 6). APE-1 activity is monitored as an increase in fluorescence due to the release of the 5′-(6-FAM)-GCACT fragment as a function of time. […] In this assay, substrate turnover was calculated from relative intensities of cleaved vs. intact oligomers and correlated with inhibitor concentration.

Experiment [3] concerns the target T1, APE-1. Kind of experiment: Molecular beacon assay for APE-1 endonuclease inhibition. The experiment is classed as biochemical. Conditions: molecular beacon assay, endonuclease activity.
Description: Screening Assays for APE1 Inhibition—The initial screen was designed to look at the effect of potential inhibitors on APE1 repair kinetics. The approach can be used as a high throughput screen by choosing a specific timepoint to monitor. The screen utilizes a molecular beacon with a tetrahydrofuran (THF) abasic site within the stem region of a DNA hairpin that has a fluorophore on the 5′-terminus and a quencher on the 3′-terminus (FIG. 2a). […] An example of the molecular beacon screen and the excision assay are shown in FIGS. 2b,c and 2d, respectively.
Molecular Beacon Assay for Screening of APE-1 Inhibitors. A fluorescence-based molecular beacon assay to measure APE-1 protein activity and inhibition was performed as described previously with some modifications. Tang et al. Neuro Oncol. 13, 471-486 (2011) APE-1 (2 nM) in 10 mM HEPES (pH 7.8) 0.5 mM MgCl, 100 mM NaCl, 100 mM KCl, 0.0005% (w/v) BSA, was incubated with 20 nM 5′-(F)-CGACTXTTGAATTGACACGCCATGTCGATCAATTCAATAGTCG-(D)-3′ [X=tetrahydrofuran (THF) abasic site modification; F, 6-carboxyfluorescein (6-FAM); and D, DABCYL] that forms a hairpin with a 15 base pair stem and a 13 base loop. The THF modification is a known substrate for APE-1 excision. APE-1 mediated cleavage of the phosphodiester backbone at the THF-abasic site led to release of the 5′ 6-FAM (fluorophore) containing pentanucleotide, disrupting the Förster Resonance Energy Transfer (FRET) mediated quenching of the 6-FAM by DABCYL in the native hairpin oligomer. Since the signal was generated by continuous liberation of the fluorophore-labeled excision fragment, progress of this reaction could be monitored in real-time using a Cary Eclipse fluorescence spectrometer (Varian, Palo Alto, Calif.) or a Synergy H1 multi-well plate reader (BioTek, Winooski, Vt.). Reactions were optimized to yield ˜90% substrate turnover in 10 min, and fluorescence intensities measured every 12 s at 495 nm excitation and 520 nm emission. Data from the first 1-3 min of the assays (linear phase) were used to determine rate of substrate turnover (V0). The Michaelis constant (KM) was deduced experimentally, by incubating 2 nM APE-1 protein with 2-500 nM hairpin DNA substrate and measuring V0 —the experimentally observed V0 were analyzed as a function of substrate concentration [S] via non-linear regression using Prism (v.4; GraphPad Software, Inc., La Jolla, Calif.) and the KM was calculated as per the algorithm in the software package. To assay inhibition, 2 nM APE-1 protein was pre-incubated with 0.05-10.00 μM of the candidate inhibitors at 25° C. for 60 min, before initiating the excision assay by addition of hairpin DNA substrate. V0 was calculated at various concentrations of inhibitors and represented as inverse function of increasing inhibitor concentration [I]. […] All assays were carried out in three independent sets to obtain mean data and standard error of mean.
as §3

Experiment [4] concerns aldehyde reactive sites in genomic DNA from T98G cells. It counts as cell-based, human.
Description: Quantification of Abasic Sites. T98G cells maintained in growth medium, were harvested by Trypsin-EDTA treatment, resuspended in fresh growth medium at a density of 2.5×10^5 cells mL^−1, and 2 mL (5×10^5 cells) of this suspension was seeded into the wells of a sterile 6-well tissue culture plate. Cells were allowed to grow for 24 h, treated with the various compounds for different time points and/or at different concentrations. At the end of each treatment, adherent cells were harvested by trypsin-EDTA treatment and pooled with live and dead cells in culture supernatant. Pooled cells in suspension were pelleted by centrifugation, washed with 1×PBS and genomic DNA was isolated using the DNAzol reagent (Invitrogen). DNA in solution was quantified by UV absorbance (λ260 nm) using a Synergy H1 multiwell plate reader (BioTek, Winooski, Vt.). Abasic sites in purified DNA were then reacted with the biotin-conjugated aldehyde reactive probe (ARP), immobilized onto 96-well ELISA plates, and detected using horseradish peroxidase (HRP)-conjugated streptavidin using a colorimetric substrate as per manufacturer's instructions (Dojindo Molecular Technologies, Rockville, Md.).
The biotin tagged ARS are quantified using an avidin-biotin assay, followed by colorimetric detection with horseradish peroxidase conjugated to avidin.
The test system of experiment [5] is T98G cells. Kind of experiment: Short term (72 h) MTS cytotoxicity assay. The experiment is classed as cell-based, human. To be noted: 72 h MTS assay. The procedure: (§4) Cytotoxic Effects of APE-1 Inhibitors on Cultured Human Glioblastoma (T98G) Cells. Human glioblastoma cells (T98G) were maintained in growth medium as described above. […] The cells were allowed to attach and grow for 24 h, and then treated with serial dilutions of the drug for 72 h. After treatment, viable cells were measured by an MTS assay using the CellTiter 96 AQueous kit (Promega) as per manufacturer's instructions. […] The cells were allowed to attach and grow for 24 h and treated with serial dilutions of the drug for 240 h. After treatment, viable cells were measured using the CyQUANT cell proliferation assay kit (Invitrogen) as per manufacturer's instructions.
as §2

The subject of experiment [6] is T98G cells. Kind of experiment: Potentiation of MeLex cytotoxicity, long term (10 d) CyQUANT assay. The experiment is classed as cell-based, human. The procedure: as §1, §2
In experiment [7] the target is APE-1 activity in T98G cell nuclear lysates (Homo sapiens (Human), UniProt P27695). Kind of experiment: Molecular beacon assay in T98G cell nuclear extracts. It counts as biochemical. The procedure:
Isolation and Assay of APE-1 Protein from Nuclear Extracts of Glioma Cells. Human glioblastoma cells (T98G) were maintained in growth medium, i.e., Eagle's Minimum Essential Medium (EMEM) with 10% fetal bovine serum (FBS), […] gentamycin, 1×MEM non-essential amino acids and 1 mM sodium pyruvate. Cells were harvested by Trypsin-EDTA treatment, washed with 1×PBS and nuclear proteins isolated using the CelLytic NuCLEAR Extraction kit (Sigma-Aldrich) as per manufacturer's instructions. Isolated nuclear proteins were estimated colorimetrically (BCA protein assay) and stored at −80° C. (long term) or at −20° C. during regular use. To assay APE-1 activity in T98G cells, nuclear extracts were serially diluted in 10 mM HEPES, 50 mM KCl, 1 mM DTT, 20% (v/v) glycerol and the activities measured via the molecular beacon assay (as described above). […] EC2 nM of nuclear extracts was incubated with 2 to 500 nM hairpin DNA substrate and the V0 measured for each value of [S]. Finally, the apparent KM* was deduced using the software algorithm in Prism (as described previously), and the KM* was used to determine the apparent Ki*. Inhibition of EC2 nM APE-1 activity by the inhibitors was assayed via the molecular beacon assay (described above).
Inhibition of APE-1 Activity in Nuclear Lysates. The ability of 1-5 and 8 to block APE-1 endonuclease activity in a complex mixture of proteins from T98G cell nuclear lysates was tested using the molecular beacon assay. The APE-1 activity in the lysates was standardized to give ˜90% turnover of 25 nM substrate in 10 min.

Experiment [8] relates to T98G cells. The experiment can be described thus: Long term (10-day) CyQUANT cytotoxicity assay. It counts as cell-based, human. To be noted: long term assay. As to the method: as §4, §2
[9] abbreviates: read-out: Ki APE-1 endonuclease inhibition.
The mark [10] stands for this setting: read-out: Ki APE-1 endonuclease inhibition (ND classes).

The text below walks through data of patent US9624235B2, “Compounds and methods for inhibition of AP endonuclease-1/redox factor-1 (HAPE1) activity” (University of Pittsburgh—Of the Commonwealth System of …, priority 2012, dated 2017).

As a reminder, the pIC50 is the negative decadic logarithm of the IC50, by convention in mol/L. Read a high pIC50 as a low IC50. In general, pKi refers to −log10 of the Ki, conventionally taken in molar units.

pIC50, pKi: −log10 of the molar value. Read-outs that look alike come from different tables or passages of the source. Where a SMILES comes first, the peptide text is derived from it. The star is where a group is joined. Tos = Cc1ccc(S(=O)(=O)*)cc1; Bn = c1ccc(C*)cc1 Some results are limits rather than exact numbers.

T1 sequence (P27695 whole entry, the tested form may be a part): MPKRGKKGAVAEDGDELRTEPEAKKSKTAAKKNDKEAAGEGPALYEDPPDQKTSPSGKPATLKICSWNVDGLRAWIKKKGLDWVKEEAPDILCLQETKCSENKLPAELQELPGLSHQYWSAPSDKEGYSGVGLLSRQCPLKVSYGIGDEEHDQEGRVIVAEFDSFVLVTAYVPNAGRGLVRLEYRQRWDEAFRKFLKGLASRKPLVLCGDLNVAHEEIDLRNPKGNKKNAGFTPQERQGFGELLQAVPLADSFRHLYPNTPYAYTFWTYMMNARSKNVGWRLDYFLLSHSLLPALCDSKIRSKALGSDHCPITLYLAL
APE-1 activity in T98G cell nuclear lysates, sequence (P27695 whole entry, stated change not applied): as the sequence (P27695 whole entry, the tested form may be a part) above

For the compound `C/C(=N\Nc1cc(C)nc2cc3c(cc12)OCO3)c1cn(C)n(-c2ccccc2)c1=O` [Compound 1], the entries for the “LD50 of MeLex in the presence of LD10 concentration of inhibitor” value in the experiment with T98G cells [1] and in the experiment with T98G cells [6] were 54 µM and 2.0 µM, respectively. This compound also had a pIC50 on APE-1 [2] of 5.36. In addition, the values for the negative-log Ki (pKi) (on APE-1 [3] (setting [9]); in experiment [7]) were 6.74 and 6.35, respectively. The “level of ARS in combination with MeLex” value in experiment [4] (80 μM MeLex + 0.25 μM inhibitor, through at least 12 h) turned out to be 50 sites/10^5 nucleotides. Moreover, the LD10 concentration in the experiment on T98G cells [5] was 2.20 µM; in the experiment with T98G cells [8], 0.17 µM. `COc1cccc(/C=N/Nc2cc(C)nc3cc4c(cc23)OCO4)c1` [Compound 2] showed a negative logarithm of the IC50 (pIC50) on APE-1 [2] of 5.00. For the same compound, the pKi at APE-1 [3] (setting [9]) was 6.66; in experiment [7], 6.62. For the compound `Cc1cc(N/N=C/c2ccc([N+](=O)[O-])o2)c2cc3c(cc2n1)OCO3` [Compound 6], at APE-1 [3] (setting [9]), the pKi was 6.19. Take `C/C(=N\Nc1cc(C)nc2ccc(C)cc12)c1cn(C)n(-c2ccccc2)c1=O` [Compound 7]: on APE-1 [3] (setting [9]), the pKi is 4.96. In turn, `C/C(=N\Nc1cc(C)c2ccccc2n1)c1cn(C)n(-c2ccccc2)c1=O` [Compound 8] gave a pIC50 on APE-1 [2] of less than 4.00. Besides, the pKi on APE-1 [3] (setting [10]) was less than 4.00. Further, the “effect on ARS” value in experiment [4] (0.25 μM compound alone) is on record as “same as background”. For `C=C(C[N+](=O)[O-])NC(CCCCNc1ccc([N+](=O)[O-])cc1N(O)O)C(=O)O` (stereo not shown) [Compound 9], on APE-1 [3] (setting [9]), the pKi is 4.89. As to `C/C=C/C(=O)NCCCCNC(=O)/C=C/c1ccc([N+](=O)[O-])cc1` [Compound 10], the negative logarithm of the Ki (pKi) at APE-1 [3] (setting [9]) is 4.77. With `COc1ccc(/C(Cc2ccccc2)=N\Nc2ccc([N+](=O)[O-])c([N+](=O)[O-])c2)cc1` [Compound 11], the negative logarithm of the Ki (pKi) at APE-1 [3] (setting [9]) is 5.17. For the compound `COc1ccc(C2C3=C(CC(C)(C)CC3=O)Oc3cc4c(cc32)OCO4)c(OC)c1` (stereo not shown) [Compound 12], the negative-log Ki (pKi) on APE-1 [3] (setting [9]) is 4.49. In the case of `N=c1[nH]nc2nc(CC(=O)c3ccccc3[N+](=O)[O-])c(CC(=O)c3ccccc3[N+](=O)[O-])nn12` [Compound 13], the pKi on APE-1 [3] (setting [9]) was 5.31. Regarding `O=C(/C=C(/Nc1ccccc1)C(=O)c1ccccc1)c1ccccc1` [Compound 14], the pKi on APE-1 [3] (setting [9]) was 4.43. Turning to `O=C(NNc1ccnc2cc(Cl)ccc12)/C(=C/c1ccccc1Cl)NC(=O)c1ccccc1` [Compound 15], the pKi on APE-1 [3] (setting [10]) is less than 4.00. On the same count and under the same terms, then `Nc1ncnc2c1ncn2C1OC(C(=O)NCC(=O)O)C(O)C1O` (stereo not shown) [Compound 16], with less than 4.00; and `CC(N)C(=O)NC1C(CO)OC(n2cnc3c(N)ncnc32)C1O` (stereo not shown) [Compound 17], with less than 4.00. Take `O=C(O)CC1(CC(=O)NCCc2c[nH]c3ccccc23)OCCO1` [Compound 18]: the pKi on APE-1 [3] (setting [10]) was less than 4.00. Still for that read-out and setting: then `O=C(O)C(Cc1c[nH]c2ccc(O)cc12)NCC1(O)OCC(O)C(O)C1O` (stereo not shown) [Compound 19], with less than 4.00; and `Cn1c(=N)[nH]c2c(nc(OCc3ccccc3)n2C2OC(O)C(O)C2O)c1=O` (stereo not shown) [Compound 21], with less than 4.00; and `CC(NC(=O)/C(=C/c1ccccc1)NC(=O)c1ccccc1)c1ccccc1` (stereo not shown) [Compound 22], with less than 4.00.

Take `Cc1ccc(S(=O)(=O)NC(CSCc2ccccc2)C(=O)NC(Cc2ccc(O)cc2)C(=O)O)cc1` (stereo not shown) [Compound 25] (Tos-Cys(Bn)-Tyr-OH; configuration not given here): at APE-1 [3] (setting [10]), the pKi is less than 4.00. As to `CCOC(=O)CC/C(=C\NC(=O)c1ccccc1)NC(=O)c1ccccc1` [Compound 26], the pKi on APE-1 [3] (setting [10]) was less than 4.00. For the compound `Cc1cc2cc3c(cc2n2c(SCC(=O)N4c5ccccc5CCc5ccccc54)nnc12)OCO3` [Compound 28], at APE-1 [3] (setting [10]), the pKi is less than 4.00. With `CCc1cc2cc(C)c(C)cc2nc1SCC(=O)N1CCN(C(=O)c2ccco2)CC1` [Compound 29], at APE-1 [3] (setting [10]), the pKi is less than 4.00. Same read-out and setting: then `CC(=O)N1N=C(c2cccc(NS(C)(=O)=O)c2)CC1c1cc2cc(C)c(C)cc2nc1Cl` (stereo not shown) [Compound 30], with less than 4.00.
